The assay addresses T1, HIV protease (Human immunodeficiency virus type 1 group M subtype B, UniProt P04585).
T1 construct: A third viral enzyme known as protease then cleaves the polyproteins
In words: Enzymatic Assay for Determining the Inhibition Constant (Ki) of Synthetic Compounds Targeting the HIV Protease (fluorometric FRET assay). The class given is biochemical. A digest of the protocol: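 Fluorometric FRET assay following protease cleavage of an EDANS/DABCYL-labelled substrate. Initial velocities without (Vo) and with inhibitor (Vi) measured; Ki derived from the Henderson equation using inhibitor and substrate concentrations and Km.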

The mark [1] stands for this setting: Table 1, compounds of formula I, read-out: Ki (anti-protease activity).

Each structure is given as a SMILES string. Counter-ions that a name gives are not always drawn. Like-named read-outs stand apart in the source and are kept apart here.

Consider `Cc1ccc(S(=O)(=O)N(CC(C)C)[C@H](CO)CCCCNC(=O)[C@H](Cc2ccc(CNC(=O)OCC3c4ccccc4-c4ccccc43)cc2)NC(=O)OC(C)(C)C)cc1` [Example 144, (2S,2′S) 2-N-Isobutyl-2-N-(4-methylbenzenesulfonyl)-6-N-[N′α-tert-butoxycarbonyl-S-4-(9-fluorenemethoxycarbonylaminomethyl)phenylalanyl]-2,6-diaminohexanol], for which the Ki under setting [1] is more than 300 nM.

Compound `Cc1ccc(S(=O)(=O)N[C@@H](Cc2c[nH]c3ccccc23)C(=O)NCCCC[C@@H](CO)N(CC(C)C)S(=O)(=O)c2ccc(N)cc2)cc1` [Example 145, (2S,2′S) 2-N-(4-Aminobenzenesulfonyl)-2-N-isobutyl-6-N-[N′α-(4-methylbenzenesulfonyl)-S-tryptophanyl]-2,6-diaminohexanol] showed a Ki of 1.9 nM.

Take `COc1ccc(S(=O)(=O)N(CC(C)C)[C@H](CO)CCCCNC(=O)[C@@H](N)Cc2c[nH]c3ccccc23)cc1` [Example 146, (2S,2′S) 2-N-Isobutyl-2-N-(4-methoxybenzenesullfonyl)-6-N-(S-tryptophanyl)-2,6-diaminohexanol Trifluoroacetic Acid Salt]: under setting [1], the Ki turned out to be 15 nM.

Take `COc1ccc(S(=O)(=O)N(CC(C)C)[C@H](CO)CCCCNC(=O)[C@H](Cc2c[nH]c3ccccc23)NC(=O)OC(C)(C)C)cc1` [Example 147, (2S,2′S) 2-N-Isobutyl-2-N-(4-methoxybenzenesulfonyl)-6-N-(N′α-tert-butoxycarbonyl-S-tryptophanyl)-2,6-diaminohexanol]: the Ki is 16 nM.

In turn, `COc1ccc(S(=O)(=O)N(CC(C)C)[C@H](CO)CCCCNC(=O)[C@H](Cc2c[nH]c3ccccc23)NC(=O)C(C)(C)C)cc1` [Example 148, (2S,2′S) 2-N-Isobutyl-2-N-(4-methoxybenzenesulfonyl)-6-N-(N′α-pivaloyl-S-tryptophanyl)-2,6-diaminohexanol] registered a Ki of 1.9 nM.

`COc1ccc(S(=O)(=O)N(CC(C)C)[C@H](CO)CCCCNC(=O)[C@H](Cc2c[nH]c3ccccc23)NS(=O)(=O)c2ccc(C)cc2)cc1` [Example 149, (2S,2′S) 2-N-Isobutyl-2-N-(4-methoxybenzenesulfonyl)-6-N-[N′α-(4-methylbenzenesulfonyl)-S-tryptophanyl]-2,6-diaminohexanol] returned a Ki of 7.5 nM.

In turn, `COC(=O)[C@H](CCCCNC(=O)[C@H](Cc1c[nH]c2ccccc12)NC(=O)OC(C)(C)C)N(CC1CCCC1)S(=O)(=O)c1ccc(OC)cc1` [Example 150, Nα-Cyclopentylmethyl-Nα-(4-methoxybenzenesulfonyl)-Nε-(N′α-tert-butoxycarbonyl-L-tryptophanyl)-L-lysine Methyl Ester] displayed a Ki of more than 300 nM.

Take `COc1ccc(S(=O)(=O)N(CC2CCCC2)[C@@H](CCCCNC(=O)[C@H](Cc2c[nH]c3ccccc23)NC(=O)OC(C)(C)C)C(=O)O)cc1` [Example 151, Nα-Cyclopentylnethyl-Nα-(4-methoxybenzenesulfonyl)-Nε-(N′α-tert-butoxycarbonyl-L-tryptophanyl)-L-lysine]: the Ki turned out to be 5.3 nM.

With `COc1ccc(S(=O)(=O)N(CC2CCCC2)[C@H](CO)CCCCNC(=O)[C@@H](N)Cc2c[nH]c3ccccc23)cc1` [Example 152, (2S,2′S) 2-N-Cyclopentylmethyl-2-N-(4-methoxybenzenesulfonyl)-6-N-(S-tryptophanyl)-2,6-diaminohexanol Trifluoroacetic Acid Salt], the Ki under setting [1] came to 12 nM.

Turning to `COc1ccc(S(=O)(=O)N(CC2CCCC2)[C@H](CO)CCCCNC(=O)[C@H](Cc2c[nH]c3ccccc23)NC(=O)OC(C)(C)C)cc1` [Example 153, (2S,2′S) 2-N-Cyclopentylmethyl-2-N-(4-methoxybenzenesulfonyl)-6-N-(N′α-tert-butoxycarbonyl-S-tryptophanyl)-2,6-diaminohexanol], affinity was put at a Ki of 24 nM.

(Values after US6610689B2, “HIV protease inhibitors based on amino acid derivatives” (priority 2001, dated 2003).)
